Numbered stars: 1 amine (or outer) side, 2 acyl side, 3 side chain; on linkers, the order of the positions; unused ones are H or OH. Peptide text beside a SMILES is read from it. * marks the point of attachment. C20 diacid = O=C(O)CCCCCCCCCCCCCCCCCCC(=O)*; C18 diacid = O=C(O)CCCCCCCCCCCCCCCCC(=O)*; γGlu = O=C(O)[C@H](CCC(=O)[*:2])N[*:1]
Assays:
[1] = Solubility in 100 mM bistrispropane buffer at pH 7.5 incubated for 18 hrs by UPLC analysis; assay type: physicochemical
[2] = Solubility in 100 mM glycylglycine buffer at pH 3.0 incubated for 18 hrs by UPLC analysis; assay type: physicochemical
[3] = biological target: T1, Calcitonin receptor (Homo sapiens, UniProt P30988); assay: Agonist activity at human calcitonin receptor expressed in BHK570 cells assessed as increase in intracellular cAMP concentration incubated for 3 hrs in absence of albumin by CRE luciferase reporter gene assay; assay type: functional, cell-based
T1 sequence (P30988 whole entry): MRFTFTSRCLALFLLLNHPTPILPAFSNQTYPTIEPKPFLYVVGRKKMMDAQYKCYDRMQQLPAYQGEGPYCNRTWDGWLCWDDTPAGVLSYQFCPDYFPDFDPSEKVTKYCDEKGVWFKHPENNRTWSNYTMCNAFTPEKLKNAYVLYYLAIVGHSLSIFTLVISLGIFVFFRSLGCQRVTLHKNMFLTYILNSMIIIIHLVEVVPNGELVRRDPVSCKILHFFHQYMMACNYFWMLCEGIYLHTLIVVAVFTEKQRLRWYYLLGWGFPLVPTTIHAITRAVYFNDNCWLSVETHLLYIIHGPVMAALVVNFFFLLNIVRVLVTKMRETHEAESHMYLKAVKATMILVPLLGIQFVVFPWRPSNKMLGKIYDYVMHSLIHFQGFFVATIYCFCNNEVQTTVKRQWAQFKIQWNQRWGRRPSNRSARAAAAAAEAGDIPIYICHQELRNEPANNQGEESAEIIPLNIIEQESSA

[4] = biological target: T2, Amylin receptor AMY3; CALCR/RAMP3 (Homo sapiens, UniProt O60896+P30988); assay: Agonist activity at human amylin receptor expressed in BHK570 cells co-expressing RAMP3 assessed as increase in intracellular cAMP concentration incubated for 3 hrs in absence of albumin by CRE luciferase reporter gene assay; assay type: functional, cell-based
T2 sequence (P30988 whole entry): T1 sequence (P30988 whole entry)
T2 sequence (O60896 whole entry): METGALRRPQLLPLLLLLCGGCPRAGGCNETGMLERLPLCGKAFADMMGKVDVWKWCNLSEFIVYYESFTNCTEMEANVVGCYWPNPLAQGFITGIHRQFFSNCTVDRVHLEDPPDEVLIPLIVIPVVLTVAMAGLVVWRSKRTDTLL

[5] = Solubility in 100 mM glycylglycine buffer at pH 4.0 incubated for 18 hrs by UPLC analysis; assay type: physicochemical
[6] = Solubility in 100 mM bistrispropane buffer at pH 8.0 incubated for 18 hrs by UPLC analysis; assay type: physicochemical
[7] = Solubility in 100 mM bistrispropane buffer at pH 6.0 incubated for 18 hrs by UPLC analysis; assay type: physicochemical
[8] = Solubility in 100 mM bistrispropane buffer at pH 6.5 incubated for 18 hrs by UPLC analysis; assay type: physicochemical
[9] = Solubility in 100 mM glycylglycine buffer at pH 5.0 incubated for 18 hrs by UPLC analysis; assay type: physicochemical
[10] = Solubility in 100 mM bistrispropane buffer at pH 7.0 incubated for 18 hrs by UPLC analysis; assay type: physicochemical
[11] = biological target: T1, Calcitonin receptor; assay: Agonist activity at human calcitonin receptor expressed in BHK570 cells assessed as increase in intracellular cAMP concentration incubated for 3 hrs in presence of 10% FBS by CRE luciferase reporter gene assay; assay type: functional, cell-based

| Compound | solubility at 18 h [1] | solubility at 18 h [2] | EC50 [3] | EC50 [4] | solubility at 18 h [5] | solubility at 18 h [6] | solubility at 18 h [7] | solubility at 18 h [8] | solubility at 18 h [9] | solubility at 18 h [10] | EC50 [11] |
| --- | --- | --- | --- | --- | --- | --- | --- | --- | --- | --- | --- |
| CC(C)C[C@H](NC(=O)[C@H](CCC(=O)O)NC(=O)[C@H](Cc1cnc[nH]1)NC(=O)[C@H](CC(C)C)NC(=O)[C@H](CCC(=O)O)NC(=O)[C@H](C)NC(=O)[C@H](CO)NC(=O)[C@H](CC(C)C)NC(=O)[C@H](CCCCN)NC(=O)CNC(=O)[C@H](CC(C)C)NC(=O)[C@@H](NC(=O)[C@H](C)NC(=O)[C@@H](NC(=O)[C@H](CO)NC(=O)[C@H](CC(C)C)NC(=O)[C@H](CCC(=O)O)NC(=O)[C@H](CO)NC(=O)[C@H](C)NC(=O)[C@H](CCC(=O)O)NC(=O)CCCCCCCCCCCCCCCCC(=O)O)[C@@H](C)O)C(C)C)C(=O)N[C@@H](C)C(=O)N[C@H](C(=O)N[C@@H](CC(C)C)C(=O)N1CCC[C@H]1C(=O)N[C@@H](CCCCN)C(=O)N[C@H](C(=O)N[C@@H](CCC(=O)O)C(=O)N[C@H](C(=O)NCC(=O)N1CCC[C@H]1C(=O)N[C@@H](CCC(=O)O)C(=O)N[C@@H](CO)C(=O)N1CCC[C@H]1C(N)=O)[C@@H](C)O)[C@@H](C)O)[C@@H](C)O ({C18 diacid}-EASELSTAVLGKLSAELHELATLPKTETGPESP-NH2) | ≥ 200 µM | ≥ 200 µM | 0.008 nM | 0.016 nM | ≥ 200 µM | ≥ 200 µM | ≥ 200 µM | ≥ 200 µM | ≥ 200 µM | ≥ 200 µM | – |
| CC(C)C[C@H](NC(=O)[C@H](C)NC(=O)[C@@H](NC(=O)[C@H](CO)NC(=O)[C@H](CC(C)C)NC(=O)[C@H](CCC(=O)O)NC(=O)[C@H](CO)NC(=O)[C@H](C)NC(=O)[C@H](CCC(=O)O)NC(=O)CCCCCCCCCCCCCCCCC(=O)O)[C@@H](C)O)C(=O)N[C@@H](C)C(=O)NCC(=O)N[C@@H](CCCNC(=N)N)C(=O)N[C@@H](CC(C)C)C(=O)N[C@@H](CO)C(=O)N[C@@H](C)C(=O)N[C@@H](CCC(=O)O)C(=O)N[C@@H](CC(C)C)C(=O)N[C@@H](Cc1cnc[nH]1)C(=O)N[C@@H](CCC(=O)O)C(=O)N[C@@H](CC(C)C)C(=O)N[C@@H](C)C(=O)N[C@H](C(=O)N[C@@H](CC(C)C)C(=O)N1CCC[C@H]1C(=O)N[C@@H](CCCNC(=N)N)C(=O)N[C@H](C(=O)N[C@@H](CCC(=O)O)C(=O)N[C@H](C(=O)NCC(=O)N1CCC[C@H]1C(=O)N[C@@H](CCC(=O)O)C(=O)N[C@@H](CO)C(=O)N1CCC[C@H]1C(N)=O)[C@@H](C)O)[C@@H](C)O)[C@@H](C)O ({C18 diacid}-EASELSTALAGRLSAELHELATLPRTETGPESP-NH2) | ≥ 200 µM | ≥ 200 µM | 0.004 nM | 0.008 nM | ≥ 200 µM | ≥ 200 µM | ≥ 200 µM | ≥ 200 µM | ≥ 200 µM | ≥ 200 µM | – |
| CC(C)C[C@H](NC(=O)[C@H](CCC(=O)O)NC(=O)[C@H](Cc1cnc[nH]1)NC(=O)[C@H](CC(C)C)NC(=O)[C@H](CCC(=O)O)NC(=O)[C@H](C)NC(=O)[C@H](CO)NC(=O)[C@H](CC(C)C)NC(=O)[C@H](CCCNC(=N)N)NC(=O)CNC(=O)[C@H](CC(C)C)NC(=O)[C@@H](NC(=O)[C@H](C)NC(=O)[C@@H](NC(=O)[C@H](CO)NC(=O)[C@H](CC(C)C)NC(=O)[C@@H]1CCCN1C(=O)[C@@H]1CCCN1C(=O)[C@H](C)NC(=O)[C@H](CCC(=O)O)NC(=O)CCCCCCCCCCCCCCCCC(=O)O)[C@@H](C)O)C(C)C)C(=O)N[C@@H](C)C(=O)N[C@H](C(=O)N[C@@H](CC(C)C)C(=O)N1CCC[C@H]1C(=O)N[C@@H](CCCNC(=N)N)C(=O)N[C@H](C(=O)N[C@@H](CCC(=O)O)C(=O)N[C@H](C(=O)NCC(=O)N1CCC[C@H]1C(=O)N[C@@H](CCC(=O)O)C(=O)N[C@@H](CO)C(=O)N1CCC[C@H]1C(N)=O)[C@@H](C)O)[C@@H](C)O)[C@@H](C)O ({C18 diacid}-EAPPLSTAVLGRLSAELHELATLPRTETGPESP-NH2) | ≥ 200 µM | ≥ 200 µM | 0.006 nM | 0.012 nM | ≥ 200 µM | ≥ 200 µM | ≥ 200 µM | ≥ 200 µM | ≥ 200 µM | ≥ 200 µM | – |
| CC(C)C[C@H](NC(=O)[C@H](C)NC(=O)[C@@H](NC(=O)[C@H](CO)NC(=O)[C@H](CC(C)C)NC(=O)[C@H](CCC(=O)O)NC(=O)[C@H](CO)NC(=O)[C@H](C)NC(=O)[C@H](CCC(=O)O)NC(=O)CCCCCCCCCCCCCCCCC(=O)O)[C@@H](C)O)C(=O)N[C@@H](CC(C)C)C(=O)NCC(=O)N[C@@H](CCCNC(=N)N)C(=O)N[C@@H](CC(C)C)C(=O)N[C@@H](CO)C(=O)N[C@@H](C)C(=O)N[C@@H](CCC(=O)O)C(=O)N[C@@H](CC(C)C)C(=O)N[C@@H](Cc1cnc[nH]1)C(=O)N[C@@H](CCC(=O)O)C(=O)N[C@@H](CC(C)C)C(=O)N[C@@H](C)C(=O)N[C@H](C(=O)N[C@@H](CC(C)C)C(=O)N1CCC[C@H]1C(=O)N[C@@H](CCCNC(=N)N)C(=O)N[C@H](C(=O)N[C@@H](CCC(=O)O)C(=O)N[C@H](C(=O)NCC(=O)N1CCC[C@H]1C(=O)N[C@@H](CCC(=O)O)C(=O)N[C@@H](CO)C(=O)N1CCC[C@H]1C(N)=O)[C@@H](C)O)[C@@H](C)O)[C@@H](C)O ({C18 diacid}-EASELSTALLGRLSAELHELATLPRTETGPESP-NH2) | ≥ 200 µM | ≥ 200 µM | 0.013 nM | 0.028 nM | ≥ 200 µM | ≥ 200 µM | ≥ 200 µM | ≥ 200 µM | ≥ 200 µM | ≥ 200 µM | – |
| CC(C)C[C@H](NC(=O)[C@H](CO)NC(=O)[C@H](C)NC(=O)[C@@H](NC(=O)[C@H](CO)NC(=O)[C@H](CC(C)C)NC(=O)[C@H](CCC(=O)O)NC(=O)[C@H](CO)NC(=O)[C@H](C)NC(=O)CC[C@H](NC(=O)CCCCCCCCCCCCCCCCCCC(=O)O)C(=O)O)[C@@H](C)O)C(=O)NCC(=O)N[C@@H](CCCNC(=N)N)C(=O)N[C@@H](CC(C)C)C(=O)N[C@@H](CO)C(=O)N[C@@H](C)C(=O)N[C@@H](CCC(=O)O)C(=O)N[C@@H](CC(C)C)C(=O)N[C@@H](Cc1cnc[nH]1)C(=O)N[C@@H](CCC(=O)O)C(=O)N[C@@H](CC(C)C)C(=O)N[C@@H](C)C(=O)N[C@H](C(=O)N[C@@H](Cc1ccc(O)cc1)C(=O)N1CCC[C@H]1C(=O)N[C@@H](CCCNC(=N)N)C(=O)N[C@H](C(=O)N[C@@H](CCC(=O)O)C(=O)N[C@H](C(=O)NCC(=O)N[C@@H](CO)C(=O)NCC(=O)N[C@@H](CO)C(=O)N[C@@H](Cc1ccc(O)cc1)C(N)=O)[C@@H](C)O)[C@@H](C)O)[C@@H](C)O ({C20 diacid-γGlu}-ASELSTASLGRLSAELHELATYPRTETGSGSY-NH2) | ≥ 200 µM | ≥ 200 µM | – | 0.037 nM | – | ≥ 200 µM | ≥ 200 µM | ≥ 200 µM | – | ≥ 200 µM | 0.042 nM |
